# According to US8952024B2, “Herbicidal pyrimidone derivatives” (E I du Pont de Nemours and Company, priority 2009, dated 2015):
# Tests used:
# Assay in all cases: Test B pre-/postemergence plant response
# Assay type in all cases: in vivo
# [1] = test system: Italian ryegrass (Lolium multiflorum); conditions: Postemergence
# Method in brief: (§1)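 Compound in solvent + surfactant applied pre-em (loam/sand) or post-em (plants 2–18 cm, peat medium); greenhouse hold 13–15 days; visual 0–100 control score.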
# [2] = test system: blackgrass (Alopecurus myosuroides); conditions: for Blackgrass plant response rating (0 to 100 scale): 62 g ai/ha, postemergence, 0 is no effect, 100 is complete control; for Plant response rating, Blackgrass: Postemergence
# Method in brief: as §1
# [3] = test system: cocklebur (Xanthium strumarium); conditions: Postemergence
# Method in brief: as §1
# corn (Zea mays) = conditions: Postemergence
# Method in brief: as §1
# [4] = test system: giant foxtail (Setaria faberii); conditions: Postemergence
# Method in brief: as §1
# [5] = test system: goosegrass (Eleusine indica); conditions: Postemergence
# Method in brief: as §1
# [6] = test system: green foxtail (Setaria viridis); conditions: Postemergence
# Method in brief: as §1
# [7] = test system: johnsongrass (Sorghum halepense); conditions: Postemergence
# Method in brief: as §1
# kochia (Kochia scoparia) = conditions: Postemergence
# Method in brief: as §1
# [8] = test system: large crabgrass (Digitaria sanguinalis); conditions: Postemergence
# Method in brief: as §1
# [9] = test system: morningglory (Ipomoea coccinea); conditions: Postemergence
# Method in brief: as §1
# [10] = test system: ragweed (common ragweed, Ambrosia elatior); conditions: Postemergence
# Method in brief: as §1
# soybean (Glycine max) = conditions: Postemergence
# Method in brief: as §1
# [11] = test system: velvetleaf (Abutilon theophrasti); conditions: Postemergence
# Method in brief: as §1
# [12] = 31 g ai/ha, 0 to 100 scale (0 no effect, 100 complete control)
# [13] = 125 g ai/ha, scale 0 to 100 (0 no effect, 100 complete control)
# [14] = 250 g ai/ha, scale 0 to 100 (0 no effect, 100 complete control), 13 to 15 days
smiles,measurement,setting,value
O=C1CCCC(O)=C1C(=O)c1cnc(-c2cc(F)cc(F)c2)n(C2CCCCC2)c1=O [Compound 181],"Plant response rating, Ryegrass, Italian",[1]; [12],10
same,"Plant response rating, Ryegrass, Italian",[1]; [13],60
same,"Plant response rating, Ryegrass, Italian",[1]; [14],65
same,Blackgrass plant response rating (0 to 100 scale),[2]; 13 to 15 days,5
same,"Plant response rating, Blackgrass",[2]; [12],0
same,"Plant response rating, Blackgrass",[2]; [13],15
same,"Plant response rating, Blackgrass",[2]; [14],15
same,"Plant response rating, Cocklebur",[3]; [12],100
same,"Plant response rating, Cocklebur",[3]; [13],100
same,"Plant response rating, Cocklebur",[3]; [14],100
same,"Plant response rating, Corn",corn (Zea mays); [12],70
same,"Plant response rating, Corn",corn (Zea mays); [13],95
same,"Plant response rating, Corn",corn (Zea mays); [14],95
same,"Plant response rating, Foxtail, Giant",[4]; [12],98
same,"Plant response rating, Foxtail, Giant",[4]; [13],100
same,"Plant response rating, Foxtail, Giant",[4]; [14],100
same,"Plant response rating, Goosegrass",[5]; [12],95
same,"Plant response rating, Goosegrass",[5]; [13],100
same,"Plant response rating, Goosegrass",[5]; [14],100
same,"Plant response rating, Foxtail, Green",[6]; [12],70
same,"Plant response rating, Foxtail, Green",[6]; [13],95
same,"Plant response rating, Foxtail, Green",[6]; [14],98
same,"Plant response rating, Johnsongrass",[7]; [12],100
same,"Plant response rating, Johnsongrass",[7]; [13],100
same,"Plant response rating, Johnsongrass",[7]; [14],100
same,"Plant response rating, Kochia",kochia (Kochia scoparia); [12],65
same,"Plant response rating, Kochia",kochia (Kochia scoparia); [13],100
same,"Plant response rating, Kochia",kochia (Kochia scoparia); [14],100
same,"Plant response rating, Crabgrass, Large",[8]; [12],98
same,"Plant response rating, Crabgrass, Large",[8]; [13],100
same,"Plant response rating, Crabgrass, Large",[8]; [14],100
same,"Plant response rating, Morningglory",[9]; [12],95
same,"Plant response rating, Morningglory",[9]; [13],100
same,"Plant response rating, Morningglory",[9]; [14],100
same,"Plant response rating, Ragweed",[10]; [12],98
same,"Plant response rating, Ragweed",[10]; [13],100
same,"Plant response rating, Ragweed",[10]; [14],100
same,"Plant response rating, Soybean",soybean (Glycine max); [12],100
same,"Plant response rating, Soybean",soybean (Glycine max); [13],100
same,"Plant response rating, Soybean",soybean (Glycine max); [14],100
same,"Plant response rating, Velvetleaf",[11]; [12],100
same,"Plant response rating, Velvetleaf",[11]; [13],100
same,"Plant response rating, Velvetleaf",[11]; [14],100
O=C1CCCC(O)=C1C(=O)c1cnc(-c2cccc(F)c2)n(C2CCCCC2)c1=O [Compound 187],"Plant response rating, Ryegrass, Italian",[1]; [12],0
same,"Plant response rating, Ryegrass, Italian",[1]; [13],10
same,"Plant response rating, Ryegrass, Italian",[1]; [14],30
same,Blackgrass plant response rating (0 to 100 scale),[2]; 13 to 15 days,0
same,"Plant response rating, Blackgrass",[2]; [12],0
same,"Plant response rating, Blackgrass",[2]; [13],5
same,"Plant response rating, Blackgrass",[2]; [14],5
same,"Plant response rating, Cocklebur",[3]; [12],100
same,"Plant response rating, Cocklebur",[3]; [13],100
same,"Plant response rating, Cocklebur",[3]; [14],100
same,"Plant response rating, Corn",corn (Zea mays); [12],50
same,"Plant response rating, Corn",corn (Zea mays); [13],75
same,"Plant response rating, Corn",corn (Zea mays); [14],80
same,"Plant response rating, Foxtail, Giant",[4]; [12],98
same,"Plant response rating, Foxtail, Giant",[4]; [13],100
same,"Plant response rating, Foxtail, Giant",[4]; [14],100
same,"Plant response rating, Goosegrass",[5]; [12],85
same,"Plant response rating, Goosegrass",[5]; [13],100
same,"Plant response rating, Goosegrass",[5]; [14],100
same,"Plant response rating, Foxtail, Green",[6]; [12],65
same,"Plant response rating, Foxtail, Green",[6]; [13],98
same,"Plant response rating, Foxtail, Green",[6]; [14],98
same,"Plant response rating, Johnsongrass",[7]; [12],90
same,"Plant response rating, Johnsongrass",[7]; [13],100
same,"Plant response rating, Johnsongrass",[7]; [14],100
same,"Plant response rating, Kochia",kochia (Kochia scoparia); [12],40
same,"Plant response rating, Kochia",kochia (Kochia scoparia); [13],70
same,"Plant response rating, Kochia",kochia (Kochia scoparia); [14],80
same,"Plant response rating, Crabgrass, Large",[8]; [12],85
same,"Plant response rating, Crabgrass, Large",[8]; [13],100
same,"Plant response rating, Crabgrass, Large",[8]; [14],100
same,"Plant response rating, Morningglory",[9]; [12],80
same,"Plant response rating, Morningglory",[9]; [13],100
same,"Plant response rating, Morningglory",[9]; [14],100
same,"Plant response rating, Ragweed",[10]; [12],95
same,"Plant response rating, Ragweed",[10]; [13],100
same,"Plant response rating, Ragweed",[10]; [14],100
same,"Plant response rating, Soybean",soybean (Glycine max); [12],98
same,"Plant response rating, Soybean",soybean (Glycine max); [13],100
same,"Plant response rating, Soybean",soybean (Glycine max); [14],100
same,"Plant response rating, Velvetleaf",[11]; [12],90
same,"Plant response rating, Velvetleaf",[11]; [13],100
same,"Plant response rating, Velvetleaf",[11]; [14],100
